Four molecules from US9512180B2, “Compstatin analogs” (THE REGENTS OF THE UNIVERSITY OF CALIFORNIA, priority 2012, dated 2016) can be followed below.

As a reminder, the IC50 is the concentration that gives 50% inhibition.

Assay [1] concerns complement alternative pathway (AP). In words: Hemolytic assay (rabbit erythrocyte lysis in human serum). Format: cell-based. Conditions: for IC50: Table 9, means from three independent experiments, read-out: IC50, Hemolytic assay. The procedure:
Inhibition of complement was also measured via lysis of erythrocytes. Rabbit erythrocytes (Complement Technology Inc., Tyler, Tex., USA) were washed in PBS and resuspended in veronal-buffered saline with 5 mM MgCl2 and 10 mM EGTA (VBS-MgEGTA). Peptide and serum dilutions were prepared as described above, and 1×10^7 erythrocytes were added to each serum/peptide mixture. Erythrocytes diluted in sterile deionized water and in VBS-MgEGTA were used as positive and negative controls for lysis, respectively. Plates were incubated for 20 minutes at 37° C., and centrifuged at 2500×g for 10 minutes.
In all assays, MgEGTA was used to chelate Ca′ ions required for classical/lectin pathway complement activation, while providing Mg′ necessary for AP activation. ELISAs allow for direct detection of C3b and C5b-9 formed during AP activation, while erythrocyte lysis assays provide a functional assessment of AP-mediated hemolysis in serum.

Assay [2] has as its system soluble C5b-9. The experiment in a line: Soluble C5b-9 ELISA of the RPE cell-based assay medium. The arrangement: species or system human. Particulars: peptide 1 μM; for soluble C5b-9 in assay medium relative to positive control: 10% human complement serum, ~24 hrs, mean±S.E.M., three donors; for Assay medium C5b-9 ELISA % of positive control: RPE cell assay medium, Mean (S.E.M.). As to the method: The in vitro drusen biogenesis model was employed. Human fetal RPE cells (Advanced Bioscience Resources, Alameda, Calif.) were cultured on Millipore HA porous supports (Millipore, Cat # PIHA 01250) in Miller medium (Maminishkis et al., 2006) supplemented with 5% fetal calf serum (FCS). Cultures derived from three different donor eyes were employed. Cells were rinsed with warm, sterile PBS and the insert membrane was excised with a scalpel and cut into small (˜4 mm^2) pieces which were placed in wells of a 96-well plate. To minimize effects of inter-culture variability, samples prepared from a single membrane were utilized for each experiment. The samples were rinsed in PBS and then exposed individually to the library of compstatin family peptides at 1 μM in FCS-free Miller medium containing 10% human complement serum (Innovative Research, Cat # IPLA-CSER AB, Lot # L12402). In preliminary experiments, compstatin family Peptides I, III, VI, VII, VIII, IX, and Parent (Table 7), were tested in the RPE cell assay at 100 μM and titrated by C5b-9 ELISA over a concentration range of 0.04-130 μM. […] Also from this assessment, Peptide VI, as well as Peptides I and III, were selected for further studies. Peptides I and III were chosen for comparative studies to Peptide VI, because they contain an arginine residue at position 1. The goal was to determine whether peptides containing arginine at position −1 (Peptide VI) or at position 1 (Peptides I and III) were potent complement inhibitors using the RPE cell assay and had improved aqueous solubility compared to previously known potent analogs. Negative control cells were exposed to Miller medium+5% FCS; positive control cells were exposed to Miller medium+10% human complement serum without inhibitory peptides. Experimental and control medium/inhibitor solutions were pre-mixed on a rocker at room temperature for 30 min, then warmed to 37° C., prior to placement on the samples and incubation for ˜24 hrs at 37° C. in a 7.0% CO2 incubator. Following the incubation period, the medium was removed and stored frozen prior to ELISA analysis. The cell/membrane samples were rinsed in PBS, fixed in cold 4% paraformaldehyde (PFA) in PBS for 20 min, and stored in 0.4% PFA until use in immunohistochemical assays.
Soluble C5b-9 ELISA of the RPE Cell-Based Assay Medium.
Experimental medium solutions were diluted 1/625 in assay diluent and quadruplicate ELISAs were performed using an OptEIA C5b-9 ELISA kit (BD Biosciences, Cat #558315). Plates were read at 450 nm, with absorbance at 570 nm subtracted for wavelength correction, on a BioRad Benchmark plate reader. C5b-9 concentrations were calculated using a standard curve generated using purified human C5b-9. Data was expressed as a percentage relative to the positive (human serum only) control. Means and standard errors for data from the three RPE donor cells were calculated and graphed using SigmaPlot 11.0 (Systat Software, San Jose, Calif.), and one-way ANOVA was calculated using Tukey's test for multiple comparisons.

Marks after values point to notes of the source that are not given here. Bridge positions count the residues as written; N and C are the ends. Square brackets hold non-standard residues; d marks the D form. Peptide text beside a SMILES is read from it. Trp(1-Me) = Cn1cc(C[C@H](N)C(=O)O)c2ccccc21

For `CC[C@H](C)[C@H](N)C(=O)N[C@H]1CSSC[C@@H](C(=O)N[C@H](C(N)=O)[C@@H](C)O)NC(=O)[C@H](CCCN=C(N)N)NC(=O)[C@H](Cc2cnc[nH]2)NC(=O)[C@H](Cc2cnc[nH]2)NC(=O)CNC(=O)[C@H](Cc2c[nH]c3ccccc23)NC(=O)[C@H](CC(=O)O)NC(=O)[C@H](CCC(N)=O)NC(=O)[C@H](C(C)C)NC(=O)[C@H](C(C)C)NC1=O` [Parent, ICV VQDWGH HRCT-NH2, reference compound], the IC50 in assay [1] worked out at 12900 nM. For the same molecule, the “difference in inhibition to other peptides” value in assay [1] (hemolysis, versus Peptides I, III, VI, IX) is on record as 4- to 6 fold. In addition, in assay [2], the “soluble C5b-9 in assay medium relative to positive control” value was 88.5±0.76% and the “Assay medium C5b-9 ELISA % of positive control” value (from here on “Assay medium C5b-9 ELISA %”) is 88.49 (0.76) % of positive control.

Consider `CC(=O)N[C@@H](CCCNC(=N)N)C(=O)N[C@H]1CSSC[C@@H](C(=O)N[C@H](C(N)=O)[C@@H](C)O)NC(=O)[C@H](CCCNC(=N)N)NC(=O)[C@H](Cc2c[nH]cn2)NC(=O)[C@H](C)NC(=O)CNC(=O)[C@H](Cc2c[nH]c3ccccc23)NC(=O)[C@H](CC(=O)O)NC(=O)[C@H](CCC(N)=O)NC(=O)[C@H](Cc2c[nH]c3ccccc23)NC(=O)[C@H](C(C)C)NC1=O` [Peptide I, Ac- RCV WQDWGA HRCT-NH2] (Ac-RCVWQDWGAHRCT-NH2; disulfide 2-12), for which the IC50 in assay [1] stood at 3330 nM. In assay [2], the “soluble C5b-9 in assay medium relative to positive control” value worked out at 61.4±2.3% and the “Assay medium C5b-9 ELISA %” value is listed as 61.37 (2.34)^a % of positive control.

In the case of `CC(=O)N[C@@H](CCCNC(=N)N)C(=O)N[C@H]1CSSC[C@@H](C(=O)N[C@H](C(N)=O)[C@@H](C)O)NC(=O)[C@H](CCCNC(=N)N)NC(=O)[C@H](Cc2c[nH]cn2)NC(=O)[C@H](C)NC(=O)CNC(=O)[C@H](Cc2c[nH]c3ccccc23)NC(=O)[C@H](CC(=O)O)NC(=O)[C@H](CCC(N)=O)NC(=O)[C@H](Cc2cn(C)c3ccccc23)NC(=O)[C@H](C(C)C)NC1=O` [Peptide III, Ac- RCV meWQDWGA HRCT-NH2] (Ac-RCV[Trp(1-Me)]QDWGAHRCT-NH2; disulfide 2-12), in assay [1], the IC50 was 2250 nM. In addition, in assay [2], the “soluble C5b-9 in assay medium relative to positive control” value is given as 50.0±0.8% and the “Assay medium C5b-9 ELISA %” value was 50.02 (0.82) % of positive control.

With `CC[C@H](C)[C@H](NC(=O)[C@H](CO)NC(=O)[C@H](CCCNC(=N)N)NC(C)=O)C(=O)N[C@H]1CSSC[C@@H](C(=O)N[C@H](C(N)=O)[C@@H](C)O)NC(=O)[C@H](CCCNC(=N)N)NC(=O)[C@H](Cc2c[nH]cn2)NC(=O)[C@H](C)NC(=O)CNC(=O)[C@H](Cc2c[nH]c3ccccc23)NC(=O)[C@H](CC(=O)O)NC(=O)[C@H](CCC(N)=O)NC(=O)[C@H](Cc2cn(C)c3ccccc23)NC(=O)[C@H](C(C)C)NC1=O` [Peptide VI, Ac-RS-ICV meWQDWGA HRCT-NH2], the IC50 in assay [1] was 2230 nM. Besides, in assay [2], the “soluble C5b-9 in assay medium relative to positive control” value was determined as 44.6±3.2% and the “Assay medium C5b-9 ELISA %” value is on record as 44.60 (3.16) % of positive control.
